Results reported in BigSolDB 2.1.

CC1(C)COP(=O)(Oc2cc(OP3(=O)OCC(C)(C)CO3)cc(OP3(=O)OCC(C)(C)CO3)c2)OC1
solubility (mole fraction)
Details | in 1,4-dioxane | in THF | in acetone | in acetonitrile | in chloroform | in dichloromethane | in ethanol | in methanol
288.15 K | 8.73e-05 | 0.000132 | 0.000453 | 0.000941 | 0.00551 | 0.00512 | 7.83e-05 | 0.000423
293.15 K | 9.57e-05 | 0.000138 | 0.000502 | 0.00109 | 0.00634 | 0.00589 | 9.43e-05 | 0.000496
298.15 K | 0.00011 | 0.000144 | 0.000568 | 0.00136 | 0.00713 | 0.00673 | 0.000111 | 0.000568
303.15 K | 0.000127 | 0.000149 | 0.000638 | 0.00158 | 0.00802 | 0.00779 | 0.00013 | 0.000648
308.15 K | 0.000139 | 0.000154 | 0.000718 | 0.00195 | 0.00921 | 0.00891 | 0.000156 | 0.000748
313.15 K | 0.000153 | 0.000158 | 0.000805 | 0.00238 | 0.0106 | – | 0.000192 | 0.000874
318.15 K | 0.000171 | 0.000162 | 0.000924 | 0.00289 | 0.0121 | – | 0.000225 | 0.000975
